The source of these data is patent US9144569B2, “Methods of administering an aromatase inhibitor, prostaglandin and GnRH for regulating ovulation in cattle” (UNIVERSITY OF SASKATCHEWAN, priority 2010, dated 2015).

Structures are written as SMILES. Marks after values point to notes of the source that are not given here.

In one assay the test system is plasma estradiol. Description: Example II: plasma estradiol during 3-day letrozole regimen. The format is in vivo, cattle. As to conditions: 3-day regimen, regardless of stage of follicular development.
The next assay concerns heifers. Description: Example III: letrozole 1 mg/kg intravenously or intramuscularly in heifers, ovarian ultrasonography. The format is in vivo, cattle. As to conditions: for Interwave Interval / Interovulatory Interval: mean±SEM. The procedure: Ovarian cyclicity in heifers was synchronized using transvaginal ultrasound-guided follicular ablation followed by a double dose of PGF 4 days after ablation. The ovaries were examined daily by transrectal ultrasonography to detect ovulation. Three days after ovulation, heifers were assigned randomly to four treatment groups and given letrozole at a dose of 1 mg/kg intravenously (in benzyl alcohol, n=10) or intramuscularly (in benzyl alcohol plus canola oil 1:1 v/v, n=10), or given a placebo intravenously (benzyl alcohol, n=5) or intramuscularly (benzyl alcohol plus canola oil 1:1 v/v, n=5). Ovarian structures were monitored by ultrasonography and blood samples were collected by jugular venipuncture twice daily from pre-treatment to post-treatment ovulations. Comparisons among groups were made by one-way ANOVA for single-point measurements and by ANOVA for repeated measures for time-series data.
Transrectal ultrasonography: daily from PGF treatment to the first ovulation post-treatment.
Endpoints are: Follicular diameter profiles; CL diameter profile; Circulating progesterone concentration; Circulating FSH and LH profiles; Letrozole profile and bioavailability; Circulating estradiol concentration Follicular fluid estradiol concentration).

Another assay relates to circulating estradiol. As to conditions: boars [56]; cited from earlier work.
The test system of assay [1] is Hereford-cross beef heifers. Description: Example I: single intravenous dose of letrozole in heifers, ovarian ultrasonography (follicle and CL dynamics). The format is in vivo, cattle. The procedure:
Hereford-cross beef heifers, 14 to 20 months of age and weighing between 295 and 450 kg, were chosen from a herd of 50 heifers maintained in outdoor corrals at the University of Saskatchewan Goodale Research Farm (52° North and 106° West). Heifers were fed alfalfa/grass hay and grain to gain approximately 1.3 Kg per day and had water ad libitum during the experimental period from July to October. Heifers were initially examined by transrectal ultrasonography (7.5 MHz linear-array transducer, Aloka SSD-900; Tokyo, Japan) to confirm that they were postpubertal by observing the presence of a CL [33].
Heifers in which a CL was detected during the initial examination were given […] cloprostenol (PGF, Estrumate™, Schering-Plough Animal Health, Pointe-Claire, QC, Canada) intramuscularly (im) to induce regression of the CL and to synchronize ovulation. Heifers were examined daily by transrectal ultrasonography to detect ovulation. Transvaginal ultrasound-guided follicular aspiration of follicles ≧5 mm was performed five to eight days after ovulation to synchronize wave emergence. Heifers were examined daily by transrectal ultrasonography to detect follicular wave emergence, which was expected 1 to 1.5 days after follicular ablation. Four days after follicular ablation (approximately 2.5 days after follicular wave emergence), and at the time follicular dominance becomes apparent, heifers were assigned randomly to the following treatment groups and given a single intravenous dose of 1) 500 μg/kg of letrozole (high dose group, n=9), 2) 250 μg/kg of letrozole (medium dose group, n=10), 3) 125 μg/kg of letrozole (low dose group, n=10), or 4) 20 ml of phosphate buffered saline (PBS control group, n=10). For practical purposes, the dose of letrozole was calculated based on an average weight of 400 kg for all heifers. The average oral dose used in women (2.5-5 mg per day for 5 days) was used to estimate the medium dose for cattle. The high and low doses were set as double and half the medium dose, respectively. The day of treatment was defined as Day 0. For intravenous injection, letrozole was prepared in 95% ethanol at a final concentration of 5 mg per ml, resulting in an injection volume of 10-40 ml. The experiment was performed in four replicates (n=2-3 per group per replicate) and each heifer was used only once.
The observations from ultrasound examination were recorded on a sketch sheet in which each ovary and its structures (CL and follicles ≧4 mm in diameter) were represented in size and location. Ovulation was defined as the disappearance of any follicle ≧8 mm between two consecutive daily examinations, and was confirmed by the subsequent development of a CL [33]. Follicular wave emergence was defined retrospectively as the day when the dominant follicle was first identified at a diameter of 4 or 5 mm. If the dominant follicle was not identified until it reached 6 or 7 mm, the previous day was considered day of the follicular wave emergence. The dominant follicle of a wave was defined as the largest antral follicle of that wave after deviation, and the first subordinate follicle as the second largest antral follicle of that wave. The day of onset of follicular and luteal regression was defined as the first day of an apparent constant decrease in follicular and luteal diameters, respectively.
Statistical analyses were done using the Statistical Analysis System software package (SAS Learning Edition 9.1, 2006; SAS Institute Inc., Cary, N.C., USA). Time-series hormone data, plasma letrozole concentration, and follicular diameter profiles were analyzed by repeated measures, using the PROC MIXED procedure. The main effects were treatment (high, medium and low dose, and control), time, and their interactions.

Procedure for plasma estradiol: For practical purposes, the total dose of letrozole (250 μg/kg) was calculated on the basis of an average weight of 350 kg for all heifers and administered intravenously in daily divided doses over 3 days (85 μg/kg per day). For intravenous injection, letrozole was prepared in 95% ethanol to a final concentration of 5 mg/ml, resulting in an injection volume of 6 mL/day.
Plasma estradiol concentrations were determined in duplicate by enzyme-linked immunosorbent assay (Cayman Chemical Company, Ann Arbor, Mich., USA). In this competitive ELISA, plasma steroid competes with acetylcholinesterase labelled steroid for the binding site on the polyclonal rabbit anti-steroid antibody. The antiserum to estradiol was reported to cross-react with estradiol-3-glucoronide (14%), estrone (12%), and estriol (0.3%). For all other steroids cross-reactivities were reported as <0.1%. The minimum and maximum values along the standard curve were 6.6 and 4000 pg/well, respectively. The intra- and inter-assay coefficients of variation for reference samples assayed in duplicate were 11.7% and 12.7, respectively.
For the same reasons, estradiol concentrations were transformed to a percentage of the mean concentration of two pre-treatment data points (i.e. for each individual heifer before statistical analysis.

Regarding `N#Cc1ccc(C(c2ccc(C#N)cc2)n2cncn2)cc1` [Letrozole, letrozole], the “plasma estradiol concentrations compared to control heifers” value in the assay with plasma estradiol was “not different”. The “Interwave Interval” value in the assay with heifers (1 mg/kg IM in benzyl alcohol plus canola oil) is 11.7 ± 0.34^b Days; in the assay on heifers (1 mg/kg IM in benzyl alcohol plus canola oil, listed as letrozole), 11.7 days; in the assay with heifers (1 mg/kg IV in benzyl alcohol), 10.6 ± 0.30^a,b Days; with heifers (1 mg/kg IV in benzyl alcohol, listed as letrozole), 10.6 days. Also, in the assay on heifers (1 mg/kg IM, P<0.05), the “day-to-day diameter profile of the corpus luteum vs IM controls” value is “larger”. Further, the “Interovulatory Interval” value with heifers (1 mg/kg IM) turned out to be 19.7 ± 0.83 days; in the assay on heifers (1 mg/kg IV) it was 18.9 ± 0.70 days. For the same molecule, the “day-to-day diameter profile of the dominant follicle among groups” value in the assay with heifers (1 mg/kg IV or IM vs placebo, Day 3 after ovulation) was “not different”. In addition, the “reduction in circulating estradiol concentrations” value with circulating estradiol was 88%. Moreover, the “number of heifers in which the extant dominant follicle ovulated” value in assay [1] (high dose 500 μg/kg iv) was 5/9; in assay [1] (low dose 125 μg/kg iv) it was 7/10; in assay [1] (medium dose 250 μg/kg iv), 5/10. In addition, the “dominant follicle diameter profile compared to control heifers” value in assay [1] (single iv dose, all dose groups combined (n=29) vs saline controls, P<0.04) is reported as “larger”. In assay [1] (single iv dose, dose groups combined, control 9.7±0.55, mean±SEM), the “diameter to which the dominant follicle grew” value worked out at 11.0±0.32 mm. Besides, the “Treatment to onset of regression of extant dominant follicle” value in assay [1] (single iv dose, doses combined, n=13, mean±SEM) is 8.7 ± 0.47^a days. The “Treatment to ovulation of extant dominant follicle” value in assay [1] (single iv dose, doses combined, n=16, mean±SEM) is on record as 9.0 ± 0.42^a days. Further, the “Treatment to wave emergence” value in assay [1] (single iv dose, low-, medium-, high-dose combined, n=29, mean±SEM) is on record as 7.5 ± 0.27^a days.
